Results from PMC8552302 (Journal of medicinal chemistry, 2021).

How the values were obtained:
mMC3R = mMC3R (Mus musculus, UniProt P33033); assay: β-galactosidase cAMP reporter agonist assay, mMC3R; conditions: read-out: efficacy at the mMC3R compared to the maximal response of α-MSH
[1] = rhesus monkey, in vivo; cited from earlier work

Chain of mMC3R (P33033 whole entry): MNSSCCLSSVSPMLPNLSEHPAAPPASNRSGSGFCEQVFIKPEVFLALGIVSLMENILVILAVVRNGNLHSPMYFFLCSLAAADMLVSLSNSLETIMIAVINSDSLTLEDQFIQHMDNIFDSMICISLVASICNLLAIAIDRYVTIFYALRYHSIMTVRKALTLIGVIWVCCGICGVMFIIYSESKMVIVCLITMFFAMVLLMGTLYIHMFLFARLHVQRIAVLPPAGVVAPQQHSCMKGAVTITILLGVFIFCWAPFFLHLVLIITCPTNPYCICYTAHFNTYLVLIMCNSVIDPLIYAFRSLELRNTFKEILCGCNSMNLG

Emax (mMC3R) [%] | Molecule | effect on heart rate and blood pressure [1]
90 to 95 | O=C(NC(Cc1ccc(Cl)cc1)C(=O)N1CCC(Cn2cncn2)(C2CCCCC2)CC1)[C@H]1Cc2ccccc2CN1 (stereo in doubt) [THIQ, N-[(3R)-1,2,3,4-tetrahydroisoquinolinium-3-ylcarbonyl]-(1R)-1-(4-chlorobenzyl)2-[4-cyclohexyl-4-(1H-1,2,4-triazol-1-ylmethyl)piperidin-1-yl]-2-oxoethylamine] | 
 | Ac-DArg-c[Cys-Glu-His-DPhe-Arg-Trp-Cys-NH2 [LY2112688] | significantly increased heart rate and blood pressure
